# From ChEMBL document CHEMBL5537135, “Novel antimicrobial peptides modified with fluorinated sulfono-γ-AA having high stability and targeting multidrug-resistant bacteria infections” (Eur J Med Chem, 2024)
# The source made the active and inactive calls. No cut-off for these calls is given here. Numbered stars: 1 amine (or outer) side, 2 acyl side, 3 side chain; on linkers, the order of the positions; unused ones are H or OH. Square brackets hold non-standard residues; d marks the D form. Peptide text beside a SMILES is read from it. * marks the point of attachment. X4 = N[C@@H](Cc1ccccc1)CN(CC(=O)[*:2])[*:1]; X1 = O=S(=O)(c1ccc(C(F)(F)F)cc1)*
# Assays:
# Staphylococcus aureus [1] = experiment: Antimicrobial activity against Staphylococcus aureus ATCC 25923 in presence of human serum; format: functional, organism-based
# Staphylococcus aureus [2] = experiment: Antimicrobial activity against methicillin-resistant Staphylococcus aureus 7 assessed as inhibition of visible bacterial growth incubated for 18 hrs by broth-dilution method; format: functional
# Staphylococcus aureus [3] = experiment: Antimicrobial activity against methicillin-resistant Staphylococcus aureus 2 assessed as inhibition of visible bacterial growth incubated for 18 hrs by broth-dilution method; format: functional
# Pseudomonas aeruginosa [4] = experiment: Antimicrobial activity against multidrug-resistant Pseudomonas aeruginosa 073 assessed as inhibition of visible bacterial growth incubated for 18 hrs by broth-dilution method; format: functional
# Staphylococcus aureus [5] = experiment: Antimicrobial activity against methicillin-resistant Staphylococcus aureus 1 assessed as inhibition of visible bacterial growth incubated for 18 hrs by broth-dilution method; format: functional
# Salmonella typhimurium = experiment: Antimicrobial activity against Salmonella typhimurium ATCC 14028 assessed as inhibition of visible bacterial growth incubated for 18 hrs by broth-dilution method; format: functional, Salmonella enterica subsp. enterica serovar Typhimurium; settings: Salmonella enterica
# Pseudomonas aeruginosa [6] = experiment: Antimicrobial activity against multidrug-resistant Pseudomonas aeruginosa 156 assessed as inhibition of visible bacterial growth incubated for 18 hrs by broth-dilution method; format: functional
# Pseudomonas aeruginosa [7] = experiment: Antimicrobial activity against Pseudomonas aeruginosa ATCC 27853 assessed as inhibition of visible bacterial growth incubated for 18 hrs by broth-dilution method; format: functional
# Bacillus subtilis = experiment: Antimicrobial activity against Bacillus subtilis ATCC 23857 assessed as inhibition of visible bacterial growth incubated for 18 hrs by broth-dilution method; format: functional
# Pseudomonas aeruginosa [8] = experiment: Antimicrobial activity against multidrug-resistant Pseudomonas aeruginosa 085 assessed as inhibition of visible bacterial growth incubated for 18 hrs by broth-dilution method; format: functional
# [9] = system: Staphylococcus epidermidis; experiment: Antimicrobial activity against Staphylococcus epidermidis ATCC 12228 assessed as inhibition of visible bacterial growth incubated for 18 hrs by broth-dilution method; format: functional
# Staphylococcus aureus [10] = experiment: Antimicrobial activity against methicillin-resistant Staphylococcus aureus 6 assessed as inhibition of visible bacterial growth incubated for 18 hrs by broth-dilution method; format: functional
# Pseudomonas aeruginosa [11] = experiment: Antimicrobial activity against multidrug-resistant Pseudomonas aeruginosa 050 assessed as inhibition of visible bacterial growth incubated for 18 hrs by broth-dilution method; format: functional
# Staphylococcus aureus [12] = experiment: Antimicrobial activity against methicillin-resistant Staphylococcus aureus 5 assessed as inhibition of visible bacterial growth incubated for 18 hrs by broth-dilution method; format: functional
# Pseudomonas aeruginosa [13] = experiment: Antimicrobial activity against multidrug-resistant Pseudomonas aeruginosa 157 assessed as inhibition of visible bacterial growth incubated for 18 hrs by broth-dilution method; format: functional
# Staphylococcus aureus [14] = experiment: Antimicrobial activity against methicillin-resistant Staphylococcus aureus 9 assessed as inhibition of visible bacterial growth incubated for 18 hrs by broth-dilution method; format: functional
# Pseudomonas aeruginosa [15] = experiment: Antimicrobial activity against multidrug-resistant Pseudomonas aeruginosa 124 assessed as inhibition of visible bacterial growth incubated for 18 hrs by broth-dilution method; format: functional
# Staphylococcus aureus [16] = experiment: Antimicrobial activity against methicillin-resistant Staphylococcus aureus ATCC 33591 assessed as inhibition of visible bacterial growth incubated for 18 hrs by broth-dilution method; format: functional
# Erythrocyte = experiment: Hemolytic activity against mouse Red blood cell incubated for 1 hr; format: toxicity, cell-based
# Pseudomonas aeruginosa [17] = experiment: Antimicrobial activity against Pseudomonas aeruginosa ATCC 27853 in presence of human serum; format: functional, organism-based
# Staphylococcus aureus [18] = experiment: Antimicrobial activity against Staphylococcus aureus ATCC 25923 in presence of mouse serum; format: functional, organism-based
# Pseudomonas aeruginosa [19] = experiment: Antimicrobial activity against multidrug-resistant Pseudomonas aeruginosa 125 assessed as inhibition of visible bacterial growth incubated for 18 hrs by broth-dilution method; format: functional
# Staphylococcus aureus [20] = experiment: Antimicrobial activity against methicillin-resistant Staphylococcus aureus 3 assessed as inhibition of visible bacterial growth incubated for 18 hrs by broth-dilution method; format: functional
# Staphylococcus aureus [21] = experiment: Antimicrobial activity against methicillin-resistant Staphylococcus aureus ATCC 33591 in presence of mouse serum; format: functional, organism-based
# Staphylococcus aureus [22] = experiment: Antimicrobial activity against methicillin-resistant Staphylococcus aureus 4 assessed as inhibition of visible bacterial growth incubated for 18 hrs by broth-dilution method; format: functional
# Pseudomonas aeruginosa [23] = experiment: Antimicrobial activity against multidrug-resistant Pseudomonas aeruginosa 119 assessed as inhibition of visible bacterial growth incubated for 18 hrs by broth-dilution method; format: functional
# Staphylococcus aureus [24] = experiment: Antimicrobial activity against Staphylococcus aureus ATCC 25923 assessed as reduction in bacterial growth in presence of Ca2+; format: functional
# Staphylococcus aureus [25] = experiment: Antimicrobial activity against Staphylococcus aureus ATCC 25923 assessed as inhibition of visible bacterial growth incubated for 18 hrs by broth-dilution method; format: functional
# Pseudomonas aeruginosa [26] = experiment: Antimicrobial activity against multidrug-resistant Pseudomonas aeruginosa 516 assessed as inhibition of visible bacterial growth incubated for 18 hrs by broth-dilution method; format: functional
# Staphylococcus aureus [27] = experiment: Antimicrobial activity against methicillin-resistant Staphylococcus aureus 10 assessed as inhibition of visible bacterial growth incubated for 18 hrs by broth-dilution method; format: functional
# Staphylococcus aureus [28] = experiment: Antimicrobial activity against Staphylococcus aureus ATCC 25923 assessed as fold change in MIC in presence of salt solution; format: functional
# Escherichia coli = experiment: Antimicrobial activity against Escherichia coli ATCC 25922 assessed as inhibition of visible bacterial growth incubated for 18 hrs by broth-dilution method; format: functional
# Staphylococcus aureus [29] = experiment: Antimicrobial activity against methicillin-resistant Staphylococcus aureus ATCC 33591 in presence of human serum; format: functional, organism-based
# Staphylococcus aureus [30] = experiment: Antimicrobial activity against methicillin-resistant Staphylococcus aureus 8 assessed as inhibition of visible bacterial growth incubated for 18 hrs by broth-dilution method; format: functional
# [31] = Stability in human serum assessed as half life measured for 5 hrs by RP-HPLC analysis; format: ADME, cell-free
# Pseudomonas aeruginosa [32] = experiment: Antimicrobial activity against multidrug-resistant Pseudomonas aeruginosa 061 assessed as inhibition of visible bacterial growth incubated for 18 hrs by broth-dilution method; format: functional
# Acinetobacter baumannii = experiment: Antimicrobial activity against Acinetobacter baumannii ATCC 19606 assessed as inhibition of visible bacterial growth incubated for 18 hrs by broth-dilution method; format: functional
# Pseudomonas aeruginosa [33] = experiment: Antimicrobial activity against Pseudomonas aeruginosa ATCC 27853 in presence of mouse serum; format: functional, organism-based
# Staphylococcus aureus [34] = experiment: Antibacterial activity against antibiotics-resistant Staphylococcus aureus ATCC 33591 assessed as reduction in microbial growth; format: functional
# Pseudomonas aeruginosa [35] = experiment: Antibacterial activity against antibiotics-resistant Pseudomonas aeruginosa […] assessed as reduction in microbial growth; format: functional
# Pseudomonas aeruginosa [36] = experiment: Antibacterial activity against Pseudomonas aeruginosa ATCC 27853 infected in C57BL/6 mouse pneumonia model assessed as log reduction in bacterial load in lung at 5 mg/kg, ip administered for 1 to 48 hrs and measured after 3 days; format: functional; settings: time 1-120 hrs
SMILES,MIC (Pseudomonas aeruginosa [4]),MIC (Salmonella typhimurium),MIC (Pseudomonas aeruginosa [6]),MIC (Pseudomonas aeruginosa [7]),MIC (Bacillus subtilis),MIC (Pseudomonas aeruginosa [8]),MIC [9],MIC (Pseudomonas aeruginosa [11]),MIC (Pseudomonas aeruginosa [13]),MIC (Pseudomonas aeruginosa [15]),MIC (Staphylococcus aureus [16]),MIC (Pseudomonas aeruginosa [19]),MIC (Pseudomonas aeruginosa [23]),MIC (Staphylococcus aureus [25]),MIC (Pseudomonas aeruginosa [26]),MIC (Escherichia coli),MIC (Pseudomonas aeruginosa [32]),MIC (Acinetobacter baumannii),other results
CC(C)C[C@H](NC(=O)[C@H](CC(C)C)NC(=O)[C@H](CCCCN)NC(=O)[C@H](CCCCN)NC(=O)[C@H](CC(C)C)NC(=O)[C@H](C)NC(=O)[C@H](CCCCN)NC(=O)CN(C[C@@H](N)Cc1ccccc1)S(=O)(=O)c1ccc(C(F)(F)F)cc1)C(N)=O (X1-[X4]KALKKLL-NH2),8 µg/mL,16 µg/mL,16 µg/mL,8 µg/mL,4 µg/mL,8 µg/mL,8 µg/mL,8 µg/mL,4 µg/mL,4 µg/mL,8 µg/mL,8 µg/mL,4 µg/mL,8 µg/mL,8 µg/mL,16 µg/mL,4 µg/mL,16 µg/mL,Activity (Staphylococcus aureus [1]): Active; MIC (Staphylococcus aureus [2]): 8 µg/mL; MIC (Staphylococcus aureus [3]): 8 µg/mL; MIC (Staphylococcus aureus [5]): 4 µg/mL; MIC (Staphylococcus aureus [10]): 8 µg/mL; MIC (Staphylococcus aureus [12]): 8 µg/mL; MIC (Staphylococcus aureus [14]): 8 µg/mL; MHC (Erythrocyte): 256 µg/mL; Activity (Pseudomonas aeruginosa [17]): Active; Activity (Staphylococcus aureus [18]): inactive; MIC (Staphylococcus aureus [20]): 8 µg/mL; Activity (Staphylococcus aureus [21]): inactive; MIC (Staphylococcus aureus [22]): 8 µg/mL; MIC (Staphylococcus aureus [24]): 32 µg/mL; MIC (Staphylococcus aureus [27]): 8 µg/mL; fold change (FC) (Staphylococcus aureus [28]): 0.25; Activity (Staphylococcus aureus [29]): Active; MIC (Staphylococcus aureus [30]): 8 µg/mL; half-life [31]: 3.93 h; Activity (Pseudomonas aeruginosa [33]): inactive
CC(C)(O/N=C(\C(=O)N[C@@H]1C(=O)N2C(C(=O)[O-])=C(C[n+]3ccccc3)CS[C@H]12)c1csc(N)n1)C(=O)O [CEFTAZIDIME],1 µg/mL,256 µg/mL,256 µg/mL,1 µg/mL,8 µg/mL,1 µg/mL,256 µg/mL,1 µg/mL,1 µg/mL,256 µg/mL,258 µg/mL,2 µg/mL,1 µg/mL,4 µg/mL,1 µg/mL,1 µg/mL,1 µg/mL,4 µg/mL,MIC (Staphylococcus aureus [34]): 32 µg/mL; MIC (Pseudomonas aeruginosa [35]): 32 µg/mL; log(activity) (Pseudomonas aeruginosa [36]): 4.75
